The values that follow come from patent US8680159B2, “Bradykinin 1 receptor modulating compounds” (Gruenenthal GmbH, priority 2010, dated 2014).

The target in the experiment is T1, human B1R receptor (CHO K1 cells stably transfected with the human B1R gene) (Homo sapiens, UniProt P46663).
T1 construct: expressed in transfected cells; host or cells: CHO K1 cells (Chinese hamster ovary), stably transfected
T1 sequence (P46663 1-353): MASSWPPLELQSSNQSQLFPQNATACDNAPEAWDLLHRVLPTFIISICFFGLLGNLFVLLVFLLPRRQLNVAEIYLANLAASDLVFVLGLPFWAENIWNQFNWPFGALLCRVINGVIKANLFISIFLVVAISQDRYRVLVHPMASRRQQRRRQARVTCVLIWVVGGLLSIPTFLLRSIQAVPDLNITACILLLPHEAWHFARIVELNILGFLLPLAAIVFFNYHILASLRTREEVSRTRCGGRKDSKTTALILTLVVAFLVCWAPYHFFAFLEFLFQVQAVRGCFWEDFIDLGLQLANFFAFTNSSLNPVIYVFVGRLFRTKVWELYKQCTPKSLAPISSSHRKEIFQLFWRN
Kind of experiment: Functional study on the bradykinin receptor 1 (B1R), Ca2+ fluorescence (Fluo-4) FLIPR/Novostar assay, hB1R cells. Conditions: CHO-K1, read-out: % Inhibition (h-B1R) at 10 μM. The class given is cell-based. On the procedure:
The agonistic or antagonistic action of substances can be quantified on the bradykinin receptor 1 (B1R) of the species human and rat using ectopically expressing cell lines (CHO K1 cells) and with the aid of a Ca^2+-sensitive dye (Fluo-4) using a fluorescent imaging plate reader (FLIPR). The indication in % activation is based on the Ca^2+ signal after addition of Lys-Des-Arg^9-bradykinin (0.5 nM) or Des-Arg^9-bradykinin (100 nM). Antagonists lead to suppression of the Ca^2+ influx after the addition of the agonist. % Inhibition compared with the maximum achievable inhibition is indicated.
The agonistic or antagonistic action of substances can be determined on the bradykinin receptor 1 (B1R) of the species human and rat using the following assay. According to this assay, the increase in intracellular Ca^2+ following administration of a B1R agonist is quantified with the aid of a Ca^2+-sensitive dye (Fluo-4 type, Molecular Probes Europe BV, Leiden, Netherlands) using a Fluorescent Imaging Plate Reader (FLIPR, Molecular Devices, Sunnyvale, USA) and/or using a Novostar (BMG Labtech GmbH, Offenburg, Germany).
Chinese hamster ovary cells (CHO K1 cells) which have been stably transfected with the human B1R gene (hB1R cells) or with the B1R gene of the rat (rB1R cells) are used. For functional studies, the cells are plated out on black 96-well plates having a clear base (BD Biosciences, Heidelberg, Germany or Greiner, Frickenhausen, Germany) in a density of 20,000-35,000 cells/well. The cells are left overnight at 37° C. and with 5% CO2 in culture medium (hB1R cells: Nutrient Mixture Ham's F12, Gibco Invitrogen GmbH, Karlsruhe, Germany or DMEM, Sigma-Aldrich, Taufkirchen, Germany; rB1R cells: D-MEM/F12, Gibco Invitrogen GmbH, Karlsruhe, Germany), with 10 vol. % FBS (fetal bovine serum, Gibco Invitrogen GmbH, Karlsruhe, Germany or PAN Biotech GmbH, Aidenbach, Germany). On the following day, the cells are loaded for 60 minutes at 37° C. with 2.13 μM Fluo-4 (Molecular Probes Europe BV, Leiden, Netherlands) in HBSS buffer (Hank's buffered saline solution, Gibco Invitrogen GmbH, Karlsruhe, Germany) […] (Sigma-Aldrich, Taufkirchen, Germany) and 10 mM HEPES (Sigma-Aldrich, Taufkirchen, Germany). The plates are then washed twice with HBSS buffer, and HBSS buffer additionally containing 0.1% BSA (bovine serum albumin; Sigma-Aldrich, Taufkirchen, Germany), 5.6 mM glucose and 0.05% gelatin (Merck KGaA, Darmstadt, Germany) is added to the plates. After incubation for a further 20 minutes at room temperature, the plates are inserted into the FLIPR or Novostar for Ca^2+ measurement. Alternatively, washing is carried out with buffer A (15 mM HEPES, 80 mM NaCl, 5 mM KCl, 1.2 mM CaCl2, 0.7 mM MgSO4, 2 g/l glucose, 2.5 mM probenecid) followed by loading with buffer A with added 2.5 μM Fluo-4 and 0.025% Pluronic F127 (Sigma-Aldrich, Taufkirchen, Germany). The cells are then washed twice with buffer A and incubated for 30 minutes at room temperature with buffer A additionally containing 0.05% BSA and 0.05% gelatin and are then inserted into the FLIPR or Novostar for Ca^2+ measurement. The Ca^2+-dependent fluorescence is measured before and after the addition of substances (λex=488 nm, λem=540 nm). Quantification is carried out by measuring the highest fluorescence intensity (FC, fluorescence counts) over time.
The FLIPR protocol consists of 2 substance additions, which are pipetted in the FLIPR. In the case of measurements using the Novostar, only the second substance addition is pipetted in the device. Both devices measure the fluorescence intensity over time. Test substances (10 μM) are first pipetted onto the cells and the intracellular Ca^2+ increase is compared with the control (hB1R: Lys-Des-Arg^9-bradykinin>=50 nM; rB1R: Des-Arg^9-bradykinin>=1 μM). This gives the % activation, based on the Ca^2+ signal after addition of Lys-Des-Arg^9-bradykinin (>=50 nM) or Des-Arg^9-bradykinin (>=1 μM). […]
On to `Cc1cccc(C)c1C(=O)NC1CC(C)(C)c2ccc(C(=O)N(C)C3CCN(c4ccncc4)CC3)cc21` (stereo not shown) [CC_H-85, 3-[(2,6-Dimethyl-benzoyl)amino]-N,1,1-trimethyl-N-(1-pyridin-4-yl-piperidin-4-yl)-2,3-dihydro-indene-5-carboxylic acid amide], for which the inhibition at 10 µM stood at 99%. As for `Cc1cc(N2CCC(N(C)C(=O)c3ccc4c(c3)C(N(C)C(=O)c3cnccc3C(F)(F)F)CC4)CC2)cc(C)n1` (stereo not shown) [CC_H-86, N-[6-[[1-(2,6-Dimethyl-pyridin-4-yl)-piperidin-4-yl]-methyl-carbamoyl]-2,3-dihydro-1H-inden-1-yl]-N-methyl-4-(trifluoromethyl)-pyridine-3-carboxylic acid amide], the figure is 95%; as for `Cc1cc(N2CCC(N(C)C(=O)c3ccc4c(c3)C(N(C)C(=O)c3ccccc3Cl)CC4)CC2)cc(C)n1` (stereo not shown) [CC_H-87, 3-[(2-Chloro-benzoyl)-methyl-amino]-N-[1-(2,6-dimethyl-pyridin-4-yl)-piperidin-4-yl]-N-methyl-2,3-dihydro-1H-indene-5-carboxylic acid amide], 100%; as for `Cc1cc(N2CCC(N(C)C(=O)c3ccc4c(c3)C(N(C)C(=O)c3sccc3Cl)CC4)CC2)cc(C)n1` (stereo not shown) [CC_H-88, 3-Chloro-N-[6-[[1-(2,6-dimethyl-pyridin-4-yl)-piperidin-4-yl]-methyl-carbamoyl]-2,3-dihydro-1H-inden-1-yl]-N-methyl-thiophene-2-carboxylic acid amide], 100%. The same measure for `CN(C(=O)c1ccc2c(c1)C(NS(=O)(=O)Cc1ccccc1C(F)(F)F)CC2(C)C)C1CCN(c2ccncc2)CC1` (stereo not shown) [CC_H-89, N,1,1-Trimethyl-N-(1-pyridin-4-yl-piperidin-4-yl)-3-[[[2-(trifluoromethyl)-phenyl]-methylsulfonyl]amino]-2,3-dihydro-indene-5-carboxylic acid amide]: 100%; for `Cc1cc(N2CCC(N(C)C(=O)c3ccc4c(c3)C(N(C)C(=O)CC(C)C)CC4)CC2)cc(C)n1` (stereo not shown) [CC_H-90, N-[1-(2,6-Dimethyl-pyridin-4-yl)-piperidin-4-yl]-N-methyl-3-[methyl-(3-methyl-butanoyl)-amino]-2,3-dihydro-1H-indene-5-carboxylic acid amide]: 100%. The same measure for `Cc1cc(N2CCC(N(C)C(=O)c3ccc4c(c3)C(N(C)C(=O)c3c(C)cccc3C)CC4)CC2)cc(C)n1` (stereo not shown) [CC_H-91, 3-[(2,6-Dimethyl-benzoyl)-methyl-amino]-N-[1-(2,6-dimethyl-pyridin-4-yl)-piperidin-4-yl]-N-methyl-2,3-dihydro-1H-indene-5-carboxylic acid amide]: 99%; for `Cc1cc(N2CCC(N(C)C(=O)c3ccc4c(c3)C(N(C)C(=O)c3cncnc3)CC4)CC2)cc(C)n1` (stereo not shown) [CC_H-92, N-[6-[[1-(2,6-Dimethyl-pyridin-4-yl)-piperidin-4-yl]-methyl-carbamoyl]-2,3-dihydro-1H-inden-1-yl]-N-methyl-pyrimidine-5-carboxylic acid amide]: 98%. `CN(C(=O)c1ccc2c(c1)C(NS(=O)(=O)c1c(Cl)cccc1C(F)(F)F)CC2(C)C)C1CCN(c2ccncc2)CC1` (stereo not shown) [CC_H-93, 3-[[[2-Chloro-6-(trifluoromethyl)-phenyl]sulfonyl]amino]-N,1,1-trimethyl-N-(1-pyridin-4-yl-piperidin-4-yl)-2,3-dihydro-indene-5-carboxylic acid amide]: the inhibition at 10 µM came out at 100%. Turning to `CN(C(=O)NC1CCCc2ccc(C(=O)N(C)C3CCN(c4ccncc4)CC3)cc21)c1ccccc1Cl` (stereo not shown) [CC_H-94, 8-[[(2-Chlorophenyl)-methyl-carbamoyl]amino]-N-methyl-N-(1-pyridin-4-yl-piperidin-4-yl)-5,6,7,8-tetrahydro-naphthalene-2-carboxylic acid amide], the inhibition at 10 µM was 100%.

A word on the inhibition: it is the change of the read-out against control, counted positive when it falls.
